According to patent US20230416203A1, “POTENT AND SELECTIVE INHIBITORS OF THE CALCIUM-ACTIVATED POTASSIUM CHANNEL, KCA3.1, FOR USE AS PLATFORM THERAPEUTICS” (priority 2020, published 2023):

Test: Two-week non-GLP toxicology in mice (clinical signs, body weight, body weight gain, food consumption, hematology, clinical chemistry, organ weights, histopathology)
[1] = 25 and 50 mg/kg BID, 2 weeks, mice
[2] = G2 25 mg/kg/BID oral, Treatment Day 1
[3] = G2 25 mg/kg/BID oral, Treatment Day 4
[4] = G2 25 mg/kg/BID oral, Treatment Day 8
[5] = G2 25 mg/kg/BID oral, Treatment Day 11
[6] = G2 25 mg/kg/BID oral, Treatment Day 14
[7] = G3 50 mg/kg/BID oral, Treatment Day 1
[8] = G3 50 mg/kg/BID oral, Treatment Day 4
[9] = G3 50 mg/kg/BID oral, Treatment Day 8
[10] = G3 50 mg/kg/BID oral, Treatment Day 11
[11] = G3 50 mg/kg/BID oral, Treatment Day 14
[12] = female mice, 25 mg/kg ROD oral, 2 weeks, mean
[13] = female mice, 25 mg/kg/BID oral, 2 weeks, mean
[14] = female mice, 50 mg/kg/BID oral, 2 weeks, mean

Procedure: Each group contained 6 mice. The animals were analyzed throughout the study, and blood and tissues were analyzed at the end of the study.

COC(=O)C1=CNC=C(C(=O)OC)C1c1ccc(F)c(C(F)(F)F)c1 [Compound 103, Dimethyl 4-(4-fluoro-3-(trifluoromethyl)phenyl)-1,4-dihydropyridine-3,5-dicarboxylate]
decrease in white blood cells (WBC) (25 mg/kg and 50 mg/kg treated male and female mice, statistically significant): up to 3.4 fold | Hematological assessment, other parameters [1]: No other toxicologically significant changes were detected | Histopathology analysis [1]: did not detect any differences with controls | Organ weights [1]: not altered | gross pathology [1]: no obvious gross pathology | Body weight of female mice, Mean [2]: 20.33 | Body weight of male mice, Mean [2]: 18.30 | Body weight of female mice, Mean [3]: 21.03 | Body weight of male mice, Mean [3]: 17.65 | Body weight of female mice, Mean [4]: 21.48 | Body weight of male mice, Mean [4]: 19.12 | Body weight of female mice, Mean [5]: 21.52 | Body weight of male mice, Mean [5]: 18.95 | Body weight of female mice, Mean [6]: 21.93 | Body weight of male mice, Mean [6]: 19.27 | Body weight of female mice, Mean [7]: 20.47 | Body weight of male mice, Mean [7]: 18.75 | Body weight of female mice, Mean [8]: 20.37 | Body weight of male mice, Mean [8]: 18.63 | Body weight of female mice, Mean [9]: 21.13 | Body weight of male mice, Mean [9]: 19.52 | Body weight of female mice, Mean [10]: 21.20 | Body weight of male mice, Mean [10]: 19.32 | Body weight of female mice, Mean [11]: 21.73 | Body weight of male mice, Mean [11]: 19.85 | Organ weights relative to body weight (%), Adrenals [12]: 0.038% | Organ weights relative to body weight (%), Brain [12]: 2.217% | Organ weights relative to body weight (%), Heart [12]: 0.990% | Organ weights relative to body weight (%), Kidneys [12]: 1.379% | Organ weights relative to body weight (%), Liver [12]: 6.436% | Organ weights relative to body weight (%), Ovaries [12]: 0.077% | Organ weights relative to body weight (%), Spleen [12]: 0.672*↑ % | Organ weights relative to body weight (%), Thymus [12]: 0.200% | Organ weights relative to body weight (%), U [12]: 0.321% | ALB [13]: 2.60*↓ g/dL | ALT [13]: 40.03 U/L | AST [13]: 84.12 U/L | BUN [13]: 19.24 mg/dL | Basophils [13]: 0.00 | CREA [13]: 0.13 mg/dL | Eosinophils [13]: 0.00 | GLU [13]: 153.02 mg/dL | HCT [13]: 28.87% | HGB [13]: 12.97 g/dL | LDLC [13]: 9.31 mg/dL | Lympthocytes [13]: 82.00 | MCH [13]: 21.10*↓ pg | MCHC [13]: 44.93*↓ g/dL | MCV [13]: 46.97*↑ fL | Monocytes [13]: 1.00 | Neutrophils [13]: 17.00 | PLT [13]: 616.67 10^3/μl | RBC [13]: 6.15 | Reticuloxyte Count [13]: 2.63 | TBIL [13]: 0.12 mg/dL | TGL [13]: 48.73 mg/dL | TP [13]: 4.12 g/dL | Urea [13]: 41.23 mg/dL | WBC [13]: 3.73*↓ 10^3/μl | Food consumption, Average Feed Intake/Animal (female mice, 25 mg/kg/BID oral, treatment day 1 to 4): 9.4 g/animal | Body weight gain (%) (female mice, 25 mg/kg/BID oral, treatment day 1 to 4, mean): −3.53% | Food consumption, Average Feed Intake/Animal (female mice, 25 mg/kg/BID oral, treatment day 1 to 8): 12.8 g/animal | Body weight gain (%) (female mice, 25 mg/kg/BID oral, treatment day 1 to 8, mean): 4.49% | Food consumption, Average Feed Intake/Animal (female mice, 25 mg/kg/BID oral, treatment day 1 to 11): 10.3 g/animal | Body weight gain (%) (female mice, 25 mg/kg/BID oral, treatment day 1 to 11, mean): 3.54% | Food consumption, Average Feed Intake/Animal (female mice, 25 mg/kg/BID oral, treatment day 1 to 14): 9.5 g/animal | Body weight gain (%) (female mice, 25 mg/kg/BID oral, treatment day 1 to 14, mean): 5.27% | ALB [14]: 2.55*↓ g/dL | ALP [14]: 254.38 U/L | ALT [14]: 55.57 U/L | AST [14]: 92.78 U/L | BUN [14]: 22.71 mg/dL | Basophils [14]: 0.00 | CREA [14]: 0.12 mg/dL | Eosinophils [14]: 0.00 | GLU [14]: 165.87 mg/dL | HCT [14]: 28.73% | HGB [14]: 13.67 g/dL | LDLC [14]: 8.23 mg/dL | Lympthocytes [14]: 84.00 | MCH [14]: 21.23 pg | MCHC [14]: 45.37*↓ g/dL | MCV [14]: 46.83*↑ fL | Monocytes [14]: 1.33 | Neutrophils [14]: 14.67 | PLT [14]: 733.00 10^3/μl | RBC [14]: 6.14 | Reticuloxyte Count [14]: 2.67 | TBIL [14]: 0.14 mg/dL | TGL [14]: 59.97 mg/dL | TP [14]: 3.89 g/dL | Urea [14]: 48.65 mg/dL | WBC [14]: 2.17*↓ 10^3/μl | Food consumption, Average Feed Intake/Animal (female mice, 50 mg/kg/BID oral, treatment day 1 to 4): 9.1 g/animal | Body weight gain (%) (female mice, 50 mg/kg/BID oral, treatment day 1 to 4, mean): −0.68% | Food consumption, Average Feed Intake/Animal (female mice, 50 mg/kg/BID oral, treatment day 1 to 8): 12.8 g/animal | Body weight gain (%) (female mice, 50 mg/kg/BID oral, treatment day 1 to 8, mean): 4.10% | Food consumption, Average Feed Intake/Animal (female mice, 50 mg/kg/BID oral, treatment day 1 to 11): 8.7 g/animal | Body weight gain (%) (female mice, 50 mg/kg/BID oral, treatment day 1 to 11, mean): 3.03% | Food consumption, Average Feed Intake/Animal (female mice, 50 mg/kg/BID oral, treatment day 1 to 14): 9.8 g/animal
